# Experimental data taken from ChEMBL document CHEMBL2073749, “Rat organic anion transporter 3 (rOAT3) is responsible for brain-to-blood efflux of homovanillic acid at the abluminal membrane of brain capillary endothelial cells” (J Cereb Blood Flow Metab, 2003).
# T1: Organic anion transporter 3 (OAT3) (Rattus norvegicus, UniProt Q9R1U7)
# T1 sequence (Q9R1U7 whole entry): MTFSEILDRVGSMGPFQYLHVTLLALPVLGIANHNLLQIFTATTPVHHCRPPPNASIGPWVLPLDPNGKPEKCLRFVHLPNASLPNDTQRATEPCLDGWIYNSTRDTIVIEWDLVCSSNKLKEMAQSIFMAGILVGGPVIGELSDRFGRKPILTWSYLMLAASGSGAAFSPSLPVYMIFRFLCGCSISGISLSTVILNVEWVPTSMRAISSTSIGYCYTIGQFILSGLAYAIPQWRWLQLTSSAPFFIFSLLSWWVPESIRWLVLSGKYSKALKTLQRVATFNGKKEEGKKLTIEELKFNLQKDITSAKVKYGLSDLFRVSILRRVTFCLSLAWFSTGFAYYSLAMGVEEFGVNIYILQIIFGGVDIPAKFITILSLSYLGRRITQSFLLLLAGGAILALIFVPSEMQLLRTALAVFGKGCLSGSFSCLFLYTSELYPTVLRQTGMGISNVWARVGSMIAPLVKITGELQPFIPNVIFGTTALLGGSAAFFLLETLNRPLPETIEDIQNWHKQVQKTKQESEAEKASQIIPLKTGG
# B1: Organic anion transporter 3 (Rattus norvegicus) (protein)
# chain: T1 sequence (Q9R1U7 whole entry)
# Tests used:
# [1] = target: T1, Organic anion transporter 3 (OAT3); assay: TP_TRANSPORTER: inhibition of Homovanillic acid uptake (HVA: 0.2 uM, PAH: 1000 uM) in Xenopus laevis oocytes; type: functional, cell-based, Oocyte; design: scale not given: the % may be the effect or the level left; conditions: Xenopus laevis oocytes (Organic anion transporter 3), probe Homovanillic acid (HVA), read-out: Activity
# [2] = target: T1, Organic anion transporter 3 (OAT3); assay: TP_TRANSPORTER: inhibition of Homovanillic acid uptake (HVA: 0.2 uM, Baclofen: 1000 uM) in Xenopus laevis oocytes; type: functional, cell-based, Oocyte; design: scale not given: the % may be the effect or the level left; conditions: Xenopus laevis oocytes (Organic anion transporter 3), probe Homovanillic acid (HVA), read-out: Activity
# [3] = target: T1, Organic anion transporter 3 (OAT3); assay: in vitro; conditions: xenopus laevis, Xenopus laevis oocytes (Organic anion transporter 3), probe Homovanillic acid (HVA), 0.2 uM
# Description: TP_TRANSPORTER: inhibition of Homovanillic acid uptake (HVA: 0.2 uM, Cimetidine: 1000 uM) in Xenopus laevis oocytes
# [4] = target: T1, Organic anion transporter 3 (OAT3); assay: TP_TRANSPORTER: inhibition of Homovanillic acid uptake (HVA: 0.2 uM, E1S; 1000 uM) in Xenopus laevis oocytes; type: functional, cell-based, Oocyte; design: scale not given: the % may be the effect or the level left; conditions: Xenopus laevis oocytes (Organic anion transporter 3), probe Homovanillic acid (HVA), read-out: Activity
# [5] = target: T1, Organic anion transporter 3 (OAT3); assay: TP_TRANSPORTER: inhibition of Homovanillic acid uptake (HVA: 0.2 uM, Indomethacin: 1000 uM) in Xenopus laevis oocytes; type: functional, cell-based, Oocyte; design: scale not given: the % may be the effect or the level left; conditions: Xenopus laevis oocytes (Organic anion transporter 3), probe Homovanillic acid (HVA), read-out: Activity
# [6] = target: T1, Organic anion transporter 3 (OAT3); assay: TP_TRANSPORTER: inhibition of Homovanillic acid uptake (HVA: 0.2 uM, 6-mercaptopurine: 1000 uM) in Xenopus laevis oocytes; type: functional, cell-based, Oocyte; design: scale not given: the % may be the effect or the level left; conditions: Xenopus laevis oocytes (Organic anion transporter 3), probe Homovanillic acid (HVA), read-out: Activity
# [7] = target: T1, Organic anion transporter 3 (OAT3); assay: TP_TRANSPORTER: inhibition of Homovanillic acid uptake (HVA: 0.2 uM, PCG: 1000 uM) in Xenopus laevis oocytes; type: functional, cell-based, Oocyte; design: scale not given: the % may be the effect or the level left; conditions: Xenopus laevis oocytes (Organic anion transporter 3), probe Homovanillic acid (HVA), read-out: Activity
# [8] = target: T1, Organic anion transporter 3 (OAT3); assay: TP_TRANSPORTER: inhibition of Homovanillic acid uptake (HVA: 0.2 uM, Probenecid: 1000 uM) in Xenopus laevis oocytes; type: functional, cell-based, Oocyte; design: scale not given: the % may be the effect or the level left; conditions: Xenopus laevis oocytes (Organic anion transporter 3), probe Homovanillic acid (HVA), read-out: Activity
# [9] = substrate: COc1cc(CC(=O)O)ccc1O; assay: TP_TRANSPORTER: uptake in Xenopus laevis oocytes; type: functional, cell-based, Oocyte
molecule,measurement,setting,value
Nc1ccc(C(=O)NCC(=O)O)cc1 [AMINOHIPPURIC ACID],activity at 1000 µM,[1],20.3%
NCC(CC(=O)O)c1ccc(Cl)cc1 (centres undefined) [BACLOFEN],activity at 1000 µM,[2],23.2%
CN/C(=N/CCSCc1nc[nH]c1C)NC#N [CIMETIDINE],activity at 1000 µM,[3],24.5%
C[C@]12CC[C@@H]3c4ccc(OS(=O)(=O)O)cc4CC[C@H]3[C@@H]1CCC2=O [ESTRONE SULFURIC ACID],activity at 1000 µM,[4],4.35%
COc1ccc2c(c1)c(CC(=O)O)c(C)n2C(=O)c1ccc(Cl)cc1 [INDOMETHACIN],activity at 1000 µM,[5],40.9%
Sc1ncnc2nc[nH]c12 [MERCAPTOPURINE ANHYDROUS],activity at 1000 µM,[6],8.67%
CC1(C)S[C@@H]2[C@H](NC(=O)Cc3ccccc3)C(=O)N2[C@H]1C(=O)O [PENICILLIN G],activity at 1000 µM,[7],1.01%
CCCN(CCC)S(=O)(=O)c1ccc(C(=O)O)cc1 [PROBENECID],activity at 1000 µM,[8],23.4%
B1,Km,[9],274 µM
